# Source: patent US10106853B2, “CUL4B as predictive biomarker for cancer treatment” (CORNELL UNIVERSITY, priority 2012, dated 2018)
# Test system: BT474 xenograft tumors
# Assay type: in vivo, athymic Nu/J nude mice
# Conditions: without topotecan administration; tumor burden and excised tumor weight
# Procedure: FIG. 5. CUL4B inactivation sensitized BT474 xenograft tumors to topotecan. Stable TGL-BT474 cells (BT474 cells stably expressing GFP-luciferase reporter) were established by retroviral transduction and FACS sorting. The resulting TGL-BT474 cells were infected with recombinant lentiviruses expressing non-targeting shCtrl, shCUL4A or shCUL4B, followed by selection of infected cells with 4 μg/ml puromycine for one week. A) Knockdown of endogenous CUL4A and 4B were verified by immunoblotting. B, C) 1×10^7 of control, CUL4A^k/d, or CUL4B^k/d TGL-BT474 cells were injected subcutaneously in the right flank of each athymic Nu/J nude mice, treated (i.p.) with toptoecan at a dose of 5 mg/g on every 4th day, and tumor burden was measure by bioluminescent imaging. Statistical significance in tumor burden between control and CUL4A^k/d or CUL4B^k/d xenograph are assessed by a two-tailed unpaired student t-test (***: p<0.001). D) Growth rate of control, CUL4A^k/d and CUL4B^k/d BT474 cells in vitro. The same number of control, CUL4A^k/d and CUL4B^k/d BT474 cells were seeded to 96-well plates and cell proliferation was measured using the XTT Cell Proliferation Assay Kit. The data represent the mean value of fold change of cells. Bars indicate the S.E. of six independent experiments. Statistical significance in cellular rate between control cells and CUL4A^k/d or CUL4B^k/d cells are assessed by student's t-test. E-F) Growth rate of control, CUL4A^k/d and CUL4B^k/d TGL-BT474 xenograft in vivo. 1×10^7 of control, CUL4A^k/d or CUL4B^k/d TGL-BT474 cells were injected subcutaneously in the right flank of each mouse of athymic Nu/J nude mice, and tumor burden was measured by bioluminescent imaging (E). On the 22nd day, tumors were collected, and the weight of exercised tumors was measured after mice were sacrificed (F).
# The effect of CUL4B knockdown on an organism's response to CPT treatment was tested in vivo by examining the sensitivity of BT474-CUL4B^k/d, BT474-CUL4A^k/d and control BT474 xenograft tumors to topotecan treatment. Topotecan, (S)-10-[(dimethylamino)methyl]-4-ethyl-4,9-dihydroxy-1H-pyrano[3′,4′:6,7]indolizino[1,2-b]quinoline-3,14(4H,12H)-dione monohydrochloride, is an FDA-approved Top1-directed chemotherapy for the treatment of ovarian, cervical and small cell lung cancer, under the trade name Hycamtin™. Nude mice bearing BT474 xenografts on dorsal skin were treated with topotecan every four (4) days for a period of 44 days. Prior to topotecan administration, the size of the xenograft tumors were identical (FIG. 5). Topotecan was then administered via intraperitoneal injection, and tumor mass was monitors by bioluminescent imaging in four day intervals. […] To rule out the possibility that the growth rate of xenografts were altered during the CUL4B inactivation process (treatment with shRNA) the tumor mass of the three xenograft groups were measured in the absence of topotecan treatment and the weight of the exercised xenograft tumors were analyzed.
# Six week old Female athymic Nu/J nude mice were purchased from Jackson Labs. Mice were housed in laminar air-flow cabinets under specific pathogen-free conditions. Nude mice were inoculated with 0.36 mg 60-day-release 17-b-estradiol pellets (Innovative Research) 24 to 48 hours before implantation of BT-474 cells. 1×10^7 BT-474 cells in 50 ul DMEM medium and 300 ul diluted BD Matrigel™ Basement Membrane Matrix (BD Bioscience, Matrix: PBS is 2:1) were injected subcutaneously in the right flank of each mouse. Tumors were detected once every four days by an IVIS Imaging System (Caliper Life Sciences). When tumors were available to be detected, mice were initially treated with topotecan. Topotecan was administered intraperitoneally on every fourth day from the initiation of therapy at doses of 5 mg/g.
# The IVIS Imaging System (Caliper life sciences) was used for bioluminescent image acquisition and analysis. […]
substance,measurement,value
"shCUL4B: lentiviral shRNA CUL4B sequence purchased from Sigma Aldrich, reduces CUL4B expression (CCGGGCAGAATTTAAAGAGGGTAAACTCGAGTTTACCCTCTTTAAATTCTGCTTTTT)",Growth rate of xenografts vs control,no significant difference
